Assay results from ChEMBL document CHEMBL5465560, “Selectivity Literature for EUbOPEN Chemogenomic Library” (2024).

Legend:
[1] = target: Bone morphogenetic protein receptor type-1B (Homo sapiens, UniProt O00238); experiment: Selectivity interaction (KinomeScan (DiscoverX)) EUB0000666a BMPR1B; conditions: at 10 µM
[2] = target: T1, Serine/threonine-protein kinase TNNI3K (Homo sapiens) (UniProt Q59H18); experiment: Selectivity interaction (KinomeScan (DiscoverX)) EUB0000229b TNNI3K; conditions: at 10 µM
T1 sequence (whole entry): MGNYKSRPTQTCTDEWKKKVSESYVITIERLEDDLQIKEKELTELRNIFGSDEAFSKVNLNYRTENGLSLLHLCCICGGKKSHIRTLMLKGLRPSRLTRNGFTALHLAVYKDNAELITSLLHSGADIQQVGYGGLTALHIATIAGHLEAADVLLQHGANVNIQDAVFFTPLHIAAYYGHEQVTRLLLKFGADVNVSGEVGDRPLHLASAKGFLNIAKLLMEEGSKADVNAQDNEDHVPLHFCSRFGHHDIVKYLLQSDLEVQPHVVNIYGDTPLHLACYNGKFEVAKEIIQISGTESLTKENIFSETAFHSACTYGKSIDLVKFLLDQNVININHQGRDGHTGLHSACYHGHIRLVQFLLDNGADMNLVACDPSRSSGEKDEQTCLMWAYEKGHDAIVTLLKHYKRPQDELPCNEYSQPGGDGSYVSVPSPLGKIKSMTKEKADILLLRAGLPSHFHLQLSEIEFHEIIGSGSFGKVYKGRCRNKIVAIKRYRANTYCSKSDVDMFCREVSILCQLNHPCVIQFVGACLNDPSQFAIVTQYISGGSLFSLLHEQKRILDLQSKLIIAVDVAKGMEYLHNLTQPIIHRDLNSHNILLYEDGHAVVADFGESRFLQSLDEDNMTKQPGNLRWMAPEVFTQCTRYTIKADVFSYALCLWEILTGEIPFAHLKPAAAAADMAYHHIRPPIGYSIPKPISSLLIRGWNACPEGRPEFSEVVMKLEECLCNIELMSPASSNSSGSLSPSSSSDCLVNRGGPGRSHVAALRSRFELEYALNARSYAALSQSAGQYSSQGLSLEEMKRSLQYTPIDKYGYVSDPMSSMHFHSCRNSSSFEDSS

[3] = target: T2, Cyclin-dependent kinase 11A (Homo sapiens) (UniProt Q9UQ88); experiment: Selectivity interaction (KinomeScan (DiscoverX)) EUB0000045b CDK11A
T2 sequence (whole entry): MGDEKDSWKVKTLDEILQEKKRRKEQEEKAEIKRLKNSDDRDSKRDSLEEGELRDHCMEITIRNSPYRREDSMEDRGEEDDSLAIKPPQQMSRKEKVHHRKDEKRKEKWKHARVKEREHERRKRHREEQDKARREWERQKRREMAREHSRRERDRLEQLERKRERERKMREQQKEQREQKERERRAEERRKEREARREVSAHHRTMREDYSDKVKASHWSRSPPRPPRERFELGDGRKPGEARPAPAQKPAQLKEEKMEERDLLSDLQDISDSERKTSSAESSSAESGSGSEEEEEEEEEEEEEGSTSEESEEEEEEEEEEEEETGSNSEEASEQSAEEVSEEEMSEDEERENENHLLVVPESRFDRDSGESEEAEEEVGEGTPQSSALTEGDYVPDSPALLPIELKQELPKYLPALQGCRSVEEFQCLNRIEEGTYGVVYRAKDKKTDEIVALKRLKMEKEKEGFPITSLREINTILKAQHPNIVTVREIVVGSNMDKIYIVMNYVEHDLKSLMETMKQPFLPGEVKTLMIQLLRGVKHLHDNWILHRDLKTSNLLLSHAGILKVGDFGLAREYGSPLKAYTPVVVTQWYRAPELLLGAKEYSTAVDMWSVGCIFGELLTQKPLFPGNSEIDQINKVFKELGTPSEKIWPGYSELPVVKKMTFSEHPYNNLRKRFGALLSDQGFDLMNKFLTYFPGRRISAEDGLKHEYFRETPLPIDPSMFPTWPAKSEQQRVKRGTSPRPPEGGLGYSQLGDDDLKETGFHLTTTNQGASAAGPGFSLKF

[4] = target: RAC-beta serine/threonine-protein kinase (Homo sapiens) (UniProt P31751); experiment: Selectivity interaction (KinomeScan (DiscoverX)) EUB0000618a AKT2; conditions: at 10 µM
RAC-beta serine/threonine-protein kinase (Homo sapiens), sequence (P31751 whole entry): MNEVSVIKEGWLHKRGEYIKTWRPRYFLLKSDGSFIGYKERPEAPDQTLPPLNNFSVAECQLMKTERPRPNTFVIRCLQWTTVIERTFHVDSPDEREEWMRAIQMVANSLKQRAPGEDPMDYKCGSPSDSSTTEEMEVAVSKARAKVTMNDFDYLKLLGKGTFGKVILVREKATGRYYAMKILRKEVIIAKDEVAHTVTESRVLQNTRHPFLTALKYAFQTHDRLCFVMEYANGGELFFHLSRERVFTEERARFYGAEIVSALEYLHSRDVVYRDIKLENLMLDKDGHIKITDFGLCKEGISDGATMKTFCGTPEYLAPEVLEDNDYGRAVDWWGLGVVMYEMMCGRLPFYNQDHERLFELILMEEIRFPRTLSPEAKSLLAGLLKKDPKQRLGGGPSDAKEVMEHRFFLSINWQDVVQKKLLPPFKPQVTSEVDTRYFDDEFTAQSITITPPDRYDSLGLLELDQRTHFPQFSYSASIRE

[5] = target: T3, Inhibitor of nuclear factor kappa-B kinase subunit alpha (Homo sapiens) (UniProt O15111); experiment: Selectivity interaction (KinomeScan (DiscoverX)) EUB0000695a CHUK; conditions: at 100 nM
T3 sequence (whole entry): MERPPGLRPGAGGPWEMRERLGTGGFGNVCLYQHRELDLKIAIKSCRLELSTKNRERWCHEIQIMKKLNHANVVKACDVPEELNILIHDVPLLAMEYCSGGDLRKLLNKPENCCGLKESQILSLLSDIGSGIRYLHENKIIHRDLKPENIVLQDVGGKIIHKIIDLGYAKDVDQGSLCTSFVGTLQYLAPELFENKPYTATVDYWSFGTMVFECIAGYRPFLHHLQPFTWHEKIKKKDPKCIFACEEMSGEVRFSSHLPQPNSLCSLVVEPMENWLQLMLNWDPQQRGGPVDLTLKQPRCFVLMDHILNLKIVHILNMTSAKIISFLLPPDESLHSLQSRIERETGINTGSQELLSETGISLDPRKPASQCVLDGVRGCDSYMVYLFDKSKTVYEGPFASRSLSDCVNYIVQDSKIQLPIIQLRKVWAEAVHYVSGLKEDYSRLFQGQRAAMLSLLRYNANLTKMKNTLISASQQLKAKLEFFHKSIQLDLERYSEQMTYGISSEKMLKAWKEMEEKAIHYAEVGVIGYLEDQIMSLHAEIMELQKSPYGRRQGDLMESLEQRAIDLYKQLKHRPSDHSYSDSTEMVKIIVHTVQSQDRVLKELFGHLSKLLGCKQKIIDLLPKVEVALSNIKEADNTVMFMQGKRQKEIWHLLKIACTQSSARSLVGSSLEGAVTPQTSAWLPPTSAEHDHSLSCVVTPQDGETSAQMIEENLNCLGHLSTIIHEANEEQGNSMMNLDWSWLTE

[6] = target: PAS domain-containing serine/threonine-protein kinase (Homo sapiens) (UniProt Q96RG2); experiment: Selectivity interaction (ProQinase) EUB0000171b PASK
PAS domain-containing serine/threonine-protein kinase (Homo sapiens), sequence (Q96RG2 whole entry, the tested form may be a part): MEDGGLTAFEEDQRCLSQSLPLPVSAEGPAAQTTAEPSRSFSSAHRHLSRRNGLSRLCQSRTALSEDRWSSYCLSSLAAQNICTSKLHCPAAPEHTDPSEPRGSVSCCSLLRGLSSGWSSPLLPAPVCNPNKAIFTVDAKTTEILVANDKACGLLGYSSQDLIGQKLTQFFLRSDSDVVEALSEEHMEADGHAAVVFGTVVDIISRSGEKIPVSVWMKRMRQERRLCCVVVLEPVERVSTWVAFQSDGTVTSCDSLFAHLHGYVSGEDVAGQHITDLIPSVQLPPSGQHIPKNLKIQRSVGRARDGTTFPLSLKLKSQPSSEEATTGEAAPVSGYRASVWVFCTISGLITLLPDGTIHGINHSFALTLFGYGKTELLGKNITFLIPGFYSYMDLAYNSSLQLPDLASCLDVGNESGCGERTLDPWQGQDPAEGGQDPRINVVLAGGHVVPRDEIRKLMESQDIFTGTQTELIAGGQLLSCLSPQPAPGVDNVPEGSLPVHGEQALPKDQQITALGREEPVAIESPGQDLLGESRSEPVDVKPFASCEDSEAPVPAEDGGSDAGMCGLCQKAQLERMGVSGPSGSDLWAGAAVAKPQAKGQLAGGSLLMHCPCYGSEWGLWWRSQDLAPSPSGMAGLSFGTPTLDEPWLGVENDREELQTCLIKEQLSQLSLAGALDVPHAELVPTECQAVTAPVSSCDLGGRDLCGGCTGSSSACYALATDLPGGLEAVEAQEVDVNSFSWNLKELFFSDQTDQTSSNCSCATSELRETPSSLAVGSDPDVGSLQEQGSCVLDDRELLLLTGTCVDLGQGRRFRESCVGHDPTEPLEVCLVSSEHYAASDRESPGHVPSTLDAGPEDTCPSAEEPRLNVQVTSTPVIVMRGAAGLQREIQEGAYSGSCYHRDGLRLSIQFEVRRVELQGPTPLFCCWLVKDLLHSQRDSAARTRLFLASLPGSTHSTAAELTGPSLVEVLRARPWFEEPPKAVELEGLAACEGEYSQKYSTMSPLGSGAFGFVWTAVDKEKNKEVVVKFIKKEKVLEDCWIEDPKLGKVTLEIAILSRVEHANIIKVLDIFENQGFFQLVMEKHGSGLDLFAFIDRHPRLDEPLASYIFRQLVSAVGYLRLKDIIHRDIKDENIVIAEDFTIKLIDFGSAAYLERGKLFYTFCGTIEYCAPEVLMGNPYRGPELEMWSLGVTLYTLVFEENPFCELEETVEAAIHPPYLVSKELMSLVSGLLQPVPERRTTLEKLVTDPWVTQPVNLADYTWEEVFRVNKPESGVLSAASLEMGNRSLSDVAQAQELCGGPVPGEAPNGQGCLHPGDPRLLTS

Bone morphogenetic protein receptor type-1B, sequence (O00238 whole entry): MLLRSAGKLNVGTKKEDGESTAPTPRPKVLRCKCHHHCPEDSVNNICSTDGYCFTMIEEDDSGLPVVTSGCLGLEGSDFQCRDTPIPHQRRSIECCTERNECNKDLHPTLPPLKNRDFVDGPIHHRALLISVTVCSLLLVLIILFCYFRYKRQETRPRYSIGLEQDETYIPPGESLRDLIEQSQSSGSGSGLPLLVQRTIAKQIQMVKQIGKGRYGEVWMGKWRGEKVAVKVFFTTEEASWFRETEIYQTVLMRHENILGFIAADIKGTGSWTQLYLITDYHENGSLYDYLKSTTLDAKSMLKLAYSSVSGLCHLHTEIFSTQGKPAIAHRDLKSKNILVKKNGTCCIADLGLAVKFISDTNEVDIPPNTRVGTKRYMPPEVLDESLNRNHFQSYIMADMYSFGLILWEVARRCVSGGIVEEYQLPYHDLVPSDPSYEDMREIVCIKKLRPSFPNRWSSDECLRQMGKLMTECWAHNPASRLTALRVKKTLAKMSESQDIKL

O=C(NOC[C@H](O)CO)c1ccc(F)c(F)c1Nc1ccc(I)cc1F
% of control [1]: 100%

COc1cc(N(C)c2ccnc3ccc(C(F)(F)F)cc23)cc(OC)c1OC
% binding [2]: 90%

C=CC(=O)Nc1cc(-n2c(=O)ccc3cnc4ccc(-c5ccc(NS(C)(=O)=O)cc5)cc4c32)ccc1C
% of control ([3]; at 1 µM): 90%
% of control ([3]; at 10 µM): 44%

O[C@H]1CC[C@H](Nc2ncc3nc(Nc4c(F)cc(F)cc4F)n([C@H]4CCOC4)c3n2)CC1
% of control [4]: 100%

Cc1cc(F)c(C(=O)Nc2cccc(-c3nncn3C(C)C)n2)cc1-n1cnc(C2CC2)c1
% of control [5]: 100%

C=CC(=O)Nc1cccc(C(=O)Nc2ccc(Nc3cc(-c4[nH]c(SC)nc4C)ccn3)cc2)c1
% of control ([6]; at 1 µM): 81%
% of control ([6]; at 5 µM): 55%
